The source made the active and inactive calls. No cut-off for these calls is given here.
Tests used:
Xenopus laevis [1] = species: Xenopus laevis; assay: Agonist activity at melatonin receptor in Xenopus laevis melanophores assessed as effect on pigment aggregation at 10^-12 to 10^-5 M after 60 mins by microtiter plate reader assay
[2] = Agonist activity at melatonin receptor in Xenopus laevis melanophores assessed as effect on pigment aggregation after 60 mins by microtiter plate reader assay
Xenopus laevis [3] = species: Xenopus laevis; assay: Agonist activity at melatonin receptor in Xenopus laevis melanophores assessed as effect on pigment aggregation at 10^-5 M after 60 mins by microtiter plate reader assay
Xenopus laevis [4] = species: Xenopus laevis; assay: Antagonist activity at melatonin receptor in Xenopus laevis melanophores assessed as effect on pigment aggregation at 10^-4 M after 60 mins by microtiter plate reader assay
[5] = molecular target: Melatonin receptor type 1A (Homo sapiens, UniProt P48039); assay: Displacement of 2-[125I]iodomelatonin from human recombinant MT1 expressed in CHO cell membranes incubated for 60 mins by liquid scintillation spectrometry
[6] = molecular target: T1, Melatonin receptor type 1B (Homo sapiens, UniProt P49286); assay: Displacement of 2-[125I]iodomelatonin from human recombinant MT2 expressed in CHO cell membranes incubated for 120 mins by liquid scintillation spectrometry
T1 sequence (P49286 whole entry): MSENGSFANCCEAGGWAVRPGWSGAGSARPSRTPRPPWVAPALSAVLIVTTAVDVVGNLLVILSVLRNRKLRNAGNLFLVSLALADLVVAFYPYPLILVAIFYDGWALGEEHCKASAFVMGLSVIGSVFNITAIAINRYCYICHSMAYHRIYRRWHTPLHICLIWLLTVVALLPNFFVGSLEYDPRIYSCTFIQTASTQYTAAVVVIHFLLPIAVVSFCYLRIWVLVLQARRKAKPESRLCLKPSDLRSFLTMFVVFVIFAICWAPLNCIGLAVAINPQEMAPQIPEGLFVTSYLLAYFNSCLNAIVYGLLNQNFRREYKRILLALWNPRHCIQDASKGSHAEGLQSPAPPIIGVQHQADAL

Chain of Melatonin receptor type 1A (P48039 whole entry): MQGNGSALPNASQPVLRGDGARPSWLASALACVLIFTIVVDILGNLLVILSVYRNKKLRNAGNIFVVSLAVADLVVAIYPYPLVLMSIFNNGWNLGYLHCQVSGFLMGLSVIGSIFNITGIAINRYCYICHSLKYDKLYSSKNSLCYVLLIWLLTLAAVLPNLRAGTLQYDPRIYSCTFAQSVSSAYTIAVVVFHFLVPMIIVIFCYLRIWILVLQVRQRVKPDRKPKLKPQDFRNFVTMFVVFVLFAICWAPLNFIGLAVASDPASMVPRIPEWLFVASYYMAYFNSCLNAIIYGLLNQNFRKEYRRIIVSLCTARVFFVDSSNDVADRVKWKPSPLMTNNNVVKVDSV

| Emax (Xenopus laevis [1]) | EC50 [2] | Activity (Xenopus laevis [3]) | inhibition (Xenopus laevis [4]) | Ki [5] | Ki [6] | Structure (SMILES) |
| --- | --- | --- | --- | --- | --- | --- |
| 100% | 0.074 nM | – | – | – | – | COc1ccc2[nH]cc(CCNC(C)=O)c2c1 [MELATONIN] |
| – | – | inactive | Active | – | – | COc1ccc2c(CCCNC(C)=O)cc(=O)oc2c1 |
| 89% | 118 nM | – | Active | 13 nM | 3.4 nM | COc1ccc2oc(=O)cc(CCNC(C)=O)c2c1 |

From ChEMBL document CHEMBL3627610 (Eur J Med Chem, 2015)
